Laboratory results taken from patent EP3868760A1, “2,3,5-SUBSTITUTED PYRROLO[2,3-B]PYRIDINES AS ERBB MODULATORS USEFUL FOR TREATING CANCER” (PearlRiver Bio GmbH, priority 2020, dated 2021).

Key:
HER2 INS YVMA = target: T1, HER2 INS YVMA (Homo sapiens, UniProt P04626, INS775YVMA); assay: Her2 Exon 20 InsYVMA Lance kinase activity assay; assay type: biochemical; settings: 1 h incubation, 1,6 µM ATP
T1 construct: purchased DPF
Description: This protocol describes how the Lance Kinase Activity Assay was performed to determine IC50 values of compounds of general formula (I) against HER2 INS YVMA. The principle behind this enzymatic assay is based upon the phosphorylation of the Ulight-peptide substrate. It is detected by using a specific EU-labeled anti-phospho peptide antibody. The binding of the Eu labeled anti-phospho peptide antibody to the phosphorylated ULight labeled peptide gives rise to a FRET-signal.
Binding of an inhibitor to the kinase prevents phosphorylation of the Ulight-substrate, resulting in a loss of FRET. In table 2 is summarized the relevant information for the LANCE assay. Table 2: Reagents, stock concentrations and final assay concentrations for Her2 INS YVMA.
The compounds of general formula (I) summarized in Table 3 were serial diluted from a 10 mM DMSO stock solution 1:3 over 8 steps in a total volume of 20 µl.
For every sample, 8 µl of kinase-substrate mix was transferred into a suitable assay plate (e.g. Corning #3673). Compound was added via pintool transfer (10nl/well) using a Biomek FX robot (BeckmanCoulter). Reaction was started by addition of 2µl ATP working solution and mixed using variomag teleshaker (Thermo Fischer Scientific). After 1 h incubation at room temperature the reaction was stopped with 10µl detection mix containing the Eu-labeled phosphospecific antibody and 10mM EDTA. After a second incubation period of 1 h at room temperature the FRET signal was measured at 340 nm excitation, 665 nm and 615 nm emission (for the ULight-substrate and Eu-AB, respectively) with an Envision spectrophotometer (Perkin Elmer, Waltham, MA, USA) with 50 µs delay and 300 µs integration time. IC50 values were determined from the sigmoidal dose response curves with the software Quattro Workflow (Quattro GmbH, Munich, Germany).

EGFR vIII Ba/F3 = EGFR vIII Ba/F3 CellTiter-Glo assay; assay type: cell-based; settings: Mus musculus, BaF3; 72 h incubation; read-out: EGFR vIII Ba/F3 CTG IC50
Description: (§1) The CellTiter-Glo Luminescent Cell Viability Assay (Promega) is a homogeneous method of determining the number of viable cells in culture. It is based on quantification of ATP, indicating the presence of metabolically active cells. Cells are seeded on day 1 at cell numbers that assure assay linearity and optimal signal intensity. After incubation for 24h in humidified chambers at 37°C and 5% CO2, compounds in DMSO are added at different concentrations. Cells are further incubated for 72 h at 37°C and 5% CO2. Cells treated with the compound vehicle DMSO are used as positive controls and cells treated with 10 µM Staurosporine serve as negative controls. At day 5 the CellTiter Glo Reagent is prepared according to the instructions of the kit (Promega Inc.): Reagent is mixed 1:1 with cell culture medium. Thereon, mixture and assay plates are equilibrated at room temperature for 20 min. Equal volumes of the reagent-medium-mixture is added to the volume of culture medium present in each well. The plates are mixed at ∼200 rpm for 2 minutes on an orbital shaker. The microplates are then incubated at room temperature for 10 minutes for stabilization of the luminescent signal. Following incubation the luminescence is recorded on a Victor microplate reader (Perkin Elmer) using a 200 ms integration time. The data is then analyzed with Excel using the XLFIT Plugin (dose response Fit 205) for IC50-determination. As quality control the Z'-factor is calculated from 16 positive and negative control values. Only assay results showing a Z'-factor ≥ 0.5 are used for further analysis.

EGFR (del746-750) = EGFR (del746-750) (Homo sapiens, UniProt P00533, DEL746-750); assay: EGFR (del746-750) Lance assay; assay type: biochemical
Sequence of EGFR (del746-750) (P00533 with tags, fused parts or gaps DEL746-750): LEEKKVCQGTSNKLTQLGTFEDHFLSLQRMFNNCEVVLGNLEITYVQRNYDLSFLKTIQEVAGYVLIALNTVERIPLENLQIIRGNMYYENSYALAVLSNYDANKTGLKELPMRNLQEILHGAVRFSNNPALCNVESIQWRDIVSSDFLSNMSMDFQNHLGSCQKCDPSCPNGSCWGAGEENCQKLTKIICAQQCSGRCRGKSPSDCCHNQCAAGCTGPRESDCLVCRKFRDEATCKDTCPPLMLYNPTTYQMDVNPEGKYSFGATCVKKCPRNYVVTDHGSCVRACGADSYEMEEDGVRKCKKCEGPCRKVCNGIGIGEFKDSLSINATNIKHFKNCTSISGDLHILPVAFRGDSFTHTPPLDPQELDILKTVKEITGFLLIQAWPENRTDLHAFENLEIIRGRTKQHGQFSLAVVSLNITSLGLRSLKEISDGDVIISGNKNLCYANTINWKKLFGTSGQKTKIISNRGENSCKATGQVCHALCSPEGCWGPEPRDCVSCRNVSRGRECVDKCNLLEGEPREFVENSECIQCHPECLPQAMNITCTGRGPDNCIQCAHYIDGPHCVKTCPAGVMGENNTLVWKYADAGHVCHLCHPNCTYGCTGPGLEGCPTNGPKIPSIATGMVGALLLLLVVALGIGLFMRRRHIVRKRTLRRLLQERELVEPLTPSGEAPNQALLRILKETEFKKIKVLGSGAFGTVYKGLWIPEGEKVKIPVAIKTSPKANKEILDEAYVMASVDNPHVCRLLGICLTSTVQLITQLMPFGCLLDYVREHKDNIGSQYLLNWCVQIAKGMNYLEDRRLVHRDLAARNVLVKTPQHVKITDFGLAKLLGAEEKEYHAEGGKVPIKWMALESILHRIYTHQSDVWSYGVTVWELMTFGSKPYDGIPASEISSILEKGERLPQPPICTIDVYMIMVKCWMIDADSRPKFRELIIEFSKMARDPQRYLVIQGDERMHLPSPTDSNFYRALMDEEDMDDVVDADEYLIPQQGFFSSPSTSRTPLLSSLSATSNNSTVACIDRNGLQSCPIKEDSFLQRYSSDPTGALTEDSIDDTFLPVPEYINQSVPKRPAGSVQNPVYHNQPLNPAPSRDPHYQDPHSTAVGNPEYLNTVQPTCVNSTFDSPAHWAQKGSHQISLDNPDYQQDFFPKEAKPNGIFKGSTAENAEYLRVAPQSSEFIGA

H1975 = H1975 CellTiter-Glo assay; assay type: cell-based; settings: Homo sapiens, NCI-H1975; 72 h incubation; read-out: H1975 CTG IC50
Description: as §1

EGFR L858R = EGFR L858R (Homo sapiens, UniProt P00533, L858R); assay: EGFR L858R Lance assay; assay type: biochemical
EGFR T790M L858R = EGFR T790M L858R (Homo sapiens, UniProt P00533, L858R/T790M); assay: EGFR T790ML858R Lance assay; assay type: biochemical
Sequence of EGFR T790M L858R (P00533 25-1210 T790M/L858R): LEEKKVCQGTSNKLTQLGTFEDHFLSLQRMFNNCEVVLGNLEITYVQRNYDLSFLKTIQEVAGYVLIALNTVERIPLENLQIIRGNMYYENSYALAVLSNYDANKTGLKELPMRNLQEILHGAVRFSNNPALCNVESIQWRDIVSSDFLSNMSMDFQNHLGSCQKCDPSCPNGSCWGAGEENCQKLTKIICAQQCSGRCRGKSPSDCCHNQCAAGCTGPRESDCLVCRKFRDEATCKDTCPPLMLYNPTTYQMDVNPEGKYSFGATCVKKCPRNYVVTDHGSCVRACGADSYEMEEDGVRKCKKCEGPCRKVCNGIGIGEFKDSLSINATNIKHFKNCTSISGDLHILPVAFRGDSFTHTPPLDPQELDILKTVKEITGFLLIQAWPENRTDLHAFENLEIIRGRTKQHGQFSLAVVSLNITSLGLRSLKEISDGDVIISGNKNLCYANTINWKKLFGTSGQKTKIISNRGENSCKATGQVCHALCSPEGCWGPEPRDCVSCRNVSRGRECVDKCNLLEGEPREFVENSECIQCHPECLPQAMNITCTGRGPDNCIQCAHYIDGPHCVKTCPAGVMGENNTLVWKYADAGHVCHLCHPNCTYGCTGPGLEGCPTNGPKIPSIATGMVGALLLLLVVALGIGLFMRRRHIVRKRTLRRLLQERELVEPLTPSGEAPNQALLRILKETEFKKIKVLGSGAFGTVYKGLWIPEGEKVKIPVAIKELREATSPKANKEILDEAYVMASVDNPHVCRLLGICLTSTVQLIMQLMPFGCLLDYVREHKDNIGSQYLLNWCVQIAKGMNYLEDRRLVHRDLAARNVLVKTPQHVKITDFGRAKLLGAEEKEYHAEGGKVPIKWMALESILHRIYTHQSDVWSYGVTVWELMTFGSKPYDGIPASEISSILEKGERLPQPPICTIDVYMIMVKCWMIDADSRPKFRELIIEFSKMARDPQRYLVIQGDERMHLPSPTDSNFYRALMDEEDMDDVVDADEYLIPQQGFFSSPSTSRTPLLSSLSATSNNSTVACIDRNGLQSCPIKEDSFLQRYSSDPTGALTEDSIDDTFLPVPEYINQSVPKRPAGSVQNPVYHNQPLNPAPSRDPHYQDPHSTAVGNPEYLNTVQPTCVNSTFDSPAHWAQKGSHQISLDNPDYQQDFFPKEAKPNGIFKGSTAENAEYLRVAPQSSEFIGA

A431 = A431 CellTiter-Glo assay; assay type: cell-based; settings: Homo sapiens, A-431; 72 h incubation; read-out: A431 CTG IC50
Description: as §1

[1] = system: Her2 Exon 20 InsYVMA Ba/F3; assay: Her2 Exon 20 InsYVMA Ba/F3 CellTiter-Glo assay; assay type: cell-based; settings: Mus musculus, BaF3; 72 h incubation; read-out: Her2 Exon 20 InsYVMA Ba/F3 CTG IC50
Description: as §1

EGFR wt = EGFR wt (Homo sapiens, UniProt P00533); assay: EGFR wt Lance assay; assay type: biochemical
Sequence of EGFR wt (P00533 25-1210): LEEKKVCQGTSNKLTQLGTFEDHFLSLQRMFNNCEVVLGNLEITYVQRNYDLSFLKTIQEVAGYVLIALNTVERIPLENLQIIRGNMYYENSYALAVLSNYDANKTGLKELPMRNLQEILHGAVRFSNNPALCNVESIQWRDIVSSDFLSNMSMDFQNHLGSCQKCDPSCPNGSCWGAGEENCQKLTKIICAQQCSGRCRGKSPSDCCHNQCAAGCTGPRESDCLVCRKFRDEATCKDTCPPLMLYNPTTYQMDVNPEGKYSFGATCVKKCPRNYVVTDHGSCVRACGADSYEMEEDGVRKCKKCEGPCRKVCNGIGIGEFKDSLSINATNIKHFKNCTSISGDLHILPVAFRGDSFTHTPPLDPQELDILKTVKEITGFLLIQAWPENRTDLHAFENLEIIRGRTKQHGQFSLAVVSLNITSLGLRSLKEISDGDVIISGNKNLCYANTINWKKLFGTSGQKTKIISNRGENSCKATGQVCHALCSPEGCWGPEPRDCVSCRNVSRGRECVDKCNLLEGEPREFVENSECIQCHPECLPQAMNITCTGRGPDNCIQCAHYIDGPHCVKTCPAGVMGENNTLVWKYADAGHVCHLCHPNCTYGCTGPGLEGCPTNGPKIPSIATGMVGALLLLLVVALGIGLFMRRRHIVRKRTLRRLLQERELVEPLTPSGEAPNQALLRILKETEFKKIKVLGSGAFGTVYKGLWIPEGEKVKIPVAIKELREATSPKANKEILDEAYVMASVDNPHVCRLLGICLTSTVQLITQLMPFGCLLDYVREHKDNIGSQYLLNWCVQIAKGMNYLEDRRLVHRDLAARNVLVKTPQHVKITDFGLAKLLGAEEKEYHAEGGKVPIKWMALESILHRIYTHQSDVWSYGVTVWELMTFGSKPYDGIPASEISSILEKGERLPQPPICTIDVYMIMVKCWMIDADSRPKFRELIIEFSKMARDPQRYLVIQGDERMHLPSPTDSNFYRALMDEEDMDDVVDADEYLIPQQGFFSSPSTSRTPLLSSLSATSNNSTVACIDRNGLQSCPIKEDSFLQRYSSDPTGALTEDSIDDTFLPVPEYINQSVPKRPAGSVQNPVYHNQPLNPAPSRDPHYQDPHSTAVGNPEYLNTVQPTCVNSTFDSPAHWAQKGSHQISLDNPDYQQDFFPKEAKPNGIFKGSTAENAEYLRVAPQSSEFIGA

Cuto-17 = Cuto-17 CellTiter-Glo assay; assay type: cell-based; settings: CUTO17; 72 h incubation; read-out: Cuto-17 CTG IC50
Description: as §1

[2] = system: EGFR Exon 20 InsNPH Ba/F3; assay: EGFR Exon 20 InsNPH Ba/F3 CellTiter-Glo assay; assay type: cell-based; settings: Mus musculus, BaF3; 72 h incubation; read-out: EGFR Exon 20 InsNPH Ba/F3 CTG IC50
Description: as §1

EGFR L858R Ba/F3 = EGFR L858R Ba/F3 CellTiter-Glo assay; assay type: cell-based; settings: Mus musculus, BaF3; 72 h incubation; read-out: EGFR L858R Ba/F3 CTG IC50
Description: as §1, with “The microplates are then incubated at room temperature for 10 minutes for stabilization of the luminescent signal.” left out, “Only assay results showing a Z'-factor ≥ 0.5 are used for further analysis.” left out

EGFR L858R T790M Ba/F3 = assay: EGFR L858RT790M Ba/F3 CellTiter-Glo assay; assay type: cell-based; settings: Mus musculus, BaF3; 72 h incubation; read-out: EGFR L858R T790M Ba/F3 CTG IC50
Description: as §1, with “The microplates are then incubated at room temperature for 10 minutes for stabilization of the luminescent signal.” left out, “Only assay results showing a Z'-factor ≥ 0.5 are used for further analysis.” left out

T1 sequence (P04626 with tags, fused parts or gaps INS775YVMA): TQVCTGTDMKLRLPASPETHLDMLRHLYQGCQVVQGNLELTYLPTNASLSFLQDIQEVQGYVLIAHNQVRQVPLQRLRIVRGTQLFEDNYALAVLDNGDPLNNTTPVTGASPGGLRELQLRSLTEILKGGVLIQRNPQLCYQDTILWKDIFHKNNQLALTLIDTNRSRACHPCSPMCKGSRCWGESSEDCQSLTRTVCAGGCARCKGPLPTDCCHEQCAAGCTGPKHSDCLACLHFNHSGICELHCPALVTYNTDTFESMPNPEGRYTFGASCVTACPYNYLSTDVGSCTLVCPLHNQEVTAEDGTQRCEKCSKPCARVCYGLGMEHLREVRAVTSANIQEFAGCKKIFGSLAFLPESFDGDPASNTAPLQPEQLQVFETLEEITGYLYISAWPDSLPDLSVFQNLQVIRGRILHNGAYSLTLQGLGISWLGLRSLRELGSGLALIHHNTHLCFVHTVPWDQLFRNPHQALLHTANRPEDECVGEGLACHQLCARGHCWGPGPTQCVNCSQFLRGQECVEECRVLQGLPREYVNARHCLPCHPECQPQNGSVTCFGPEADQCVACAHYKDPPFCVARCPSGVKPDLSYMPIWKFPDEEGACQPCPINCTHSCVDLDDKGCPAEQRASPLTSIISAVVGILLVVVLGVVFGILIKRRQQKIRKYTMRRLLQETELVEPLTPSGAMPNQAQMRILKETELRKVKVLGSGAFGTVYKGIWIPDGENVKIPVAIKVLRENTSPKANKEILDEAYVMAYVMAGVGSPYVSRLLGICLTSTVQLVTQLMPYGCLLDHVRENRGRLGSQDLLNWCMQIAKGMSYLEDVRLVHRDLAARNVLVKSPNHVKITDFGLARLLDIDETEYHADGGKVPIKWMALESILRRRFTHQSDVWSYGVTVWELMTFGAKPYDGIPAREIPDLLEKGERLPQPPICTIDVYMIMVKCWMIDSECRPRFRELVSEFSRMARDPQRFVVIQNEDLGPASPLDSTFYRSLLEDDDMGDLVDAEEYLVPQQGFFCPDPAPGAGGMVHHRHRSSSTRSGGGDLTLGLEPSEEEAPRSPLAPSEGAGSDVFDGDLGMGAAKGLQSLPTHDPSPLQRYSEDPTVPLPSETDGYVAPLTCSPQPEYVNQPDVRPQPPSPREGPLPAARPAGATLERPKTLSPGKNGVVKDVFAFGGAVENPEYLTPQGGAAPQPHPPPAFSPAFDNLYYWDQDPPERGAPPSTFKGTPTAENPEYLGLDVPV

Row | IC50 (HER2 INS YVMA) | IC50 (EGFR vIII Ba/F3) | IC50 (EGFR (del746-750)) | IC50 (H1975) | IC50 (EGFR L858R) | IC50 (EGFR T790M L858R) | IC50 (A431) | IC50 [1] | IC50 (EGFR wt) | IC50 [2] | IC50 (EGFR L858R Ba/F3) | IC50 (EGFR L858R T790M Ba/F3) | Structure (SMILES) | IC50 (Cuto-17)
1 | ≤ 50 nM | 50 to 100 nM | ≤ 50 nM | 500 to 1000 nM | ≤ 50 nM | ≤ 50 nM | 1000 to 10000 nM | 100 to 500 nM | ≤ 50 nM | ≤ 50 nM |  |  | C=CC(=O)Nc1cc(-c2c(-c3ccc(N4CCN(C)CC4)cc3)[nH]c3ncc(-c4cn(C)nc4C)cc23)ccc1C [Example 5, N-(5-(5-(1,3-dimethyl-1H-pyrazol-4-yl)-2-(4-(4-methylpiperazin-1-yl)phenyl)-1H-pyrrolo[2,3-b]pyridin-3-yl)-2-methylphenyl)acrylamide] | 100 to 500 nM
2 | ≤ 50 nM | ≤ 50 nM |  | 100 to 500 nM |  | ≤ 50 nM | 1000 to 10000 nM | 100 to 500 nM | ≤ 50 nM | ≤ 50 nM |  |  | C=CC(=O)Nc1cc(-c2c(-c3ccc(N4CCN(C)CC4)cc3)[nH]c3ncc(-c4cnn(C)c4)cc23)ccc1C [Example 1, N-(2-methyl-5-(5-(1-methyl-1H-pyrazol-4-yl)-2-(4-(4-methylpiperazin-1-yl)phenyl)-1H-pyrrolo[2,3-b]pyridin-3-yl)phenyl)acrylamide] | 100 to 500 nM
3 | ≤ 50 nM | ≤ 50 nM |  | 100 to 500 nM |  | ≤ 50 nM | 500 to 1000 nM | 50 to 100 nM | ≤ 50 nM | ≤ 50 nM |  |  | C=CC(=O)Nc1cc(-c2c(-c3ccc(N4CCN(C)CC4)cc3)[nH]c3ncc(-c4cnn(CC)c4)cc23)ccc1C [Example 4, N-(5-(5-(1-ethyl-1H-pyrazol-4-yl)-2-(4-(4-methylpiperazin-1-yl)phenyl)-1 H-pyrrolo[2,3-b]pyridin-3-yl)-2-methylphenyl)acrylamide] | 100 to 500 nM
4 | ≤ 50 nM | ≤ 50 nM |  | 100 to 500 nM |  | ≤ 50 nM | 1000 to 10000 nM | 100 to 500 nM | ≤ 50 nM | 50 to 100 nM |  |  | C=CC(=O)Nc1cc(-c2c(-c3ccc(N4CCN(C)CC4)cc3)[nH]c3ncc(-c4ccnn4C)cc23)ccc1C [Example 2, N-(2-methyl-5-(5-(1-methyl-1H-pyrazol-5-yl)-2-(4-(4-methylpiperazin-1-yl)phenyl)-1H-pyrrolo[2,3-b]pyridin-3-yl)phenyl)acrylamide] | 100 to 500 nM
5 | ≤ 50 nM | ≤ 50 nM |  | 100 to 500 nM |  | ≤ 50 nM | 1000 to 10000 nM | 100 to 500 nM | ≤ 50 nM | ≤ 50 nM |  |  | C=CC(=O)Nc1cc(-c2c(-c3ccc(N4CCN(C)CC4)cc3)[nH]c3ncc(-c4cnn(CCOC)c4)cc23)ccc1C [Example 7, N-(5-(5-(1-(2-methoxyethyl)-1H-pyrazol-4-yl)-2-(4-(4-methylpiperazin-1-yl)phenyl)-1H-pyrrolo[2,3-b]pyridin-3-yl)-2-methylphenyl)acrylamide] | 100 to 500 nM
6 | ≤ 50 nM | ≤ 50 nM | ≤ 50 nM | 100 to 500 nM | ≤ 50 nM | ≤ 50 nM | 1000 to 10000 nM | ≤ 50 nM | ≤ 50 nM | ≤ 50 nM | ≤ 50 nM | ≤ 50 nM | C=CC(=O)Nc1cc(-c2c(-c3ccc(N4CCN(C)CC4)cc3)[nH]c3ncc(-c4cnn(C5CC5)c4)cc23)ccc1C [Example 6, N-(5-(5-(1-cyclopropyl-1H-pyrazol-4-yl)-2-(4-(4-methylpiperazin-1-yl)phenyl)-1H-pyrrolo[2,3-b]pyridin-3-yl)-2-methylphenyl)acrylamide] | 100 to 500 nM
7 | ≤ 50 nM | ≤ 50 nM |  | 50 to 100 nM |  | ≤ 50 nM | 500 to 1000 nM | ≤ 50 nM | ≤ 50 nM | ≤ 50 nM |  |  | C=CC(=O)Nc1cc(-c2c(-c3ccc(N4CCN(C)CC4)cc3)[nH]c3ncc(-c4cnn(C)c4C)cc23)ccc1C [Example 3, N-(5-(5-(1,5-dimethyl-1H-pyrazol-4-yl)-2-(4-(4-methylpiperazin-1-yl)phenyl)-1H-pyrrolo[2,3-b]pyridin-3-yl)-2-methylphenyl)acrylamide] | ≤ 50 nM
